Measurements as given in EP0904260B1, “INHIBITION OF MATRIX METALLOPROTEASES BY 2-(OMEGA-AROYLALKYL)-4-BIARYL-OXOBUTYRIC ACIDS” (Bayer Corporation, priority 1996, dated 1997).

Key:
MMP-2 = molecular target: T1, MMP-2 (Homo sapiens, UniProt P08253); assay: biochemical
T1 sequence (P08253 110-660): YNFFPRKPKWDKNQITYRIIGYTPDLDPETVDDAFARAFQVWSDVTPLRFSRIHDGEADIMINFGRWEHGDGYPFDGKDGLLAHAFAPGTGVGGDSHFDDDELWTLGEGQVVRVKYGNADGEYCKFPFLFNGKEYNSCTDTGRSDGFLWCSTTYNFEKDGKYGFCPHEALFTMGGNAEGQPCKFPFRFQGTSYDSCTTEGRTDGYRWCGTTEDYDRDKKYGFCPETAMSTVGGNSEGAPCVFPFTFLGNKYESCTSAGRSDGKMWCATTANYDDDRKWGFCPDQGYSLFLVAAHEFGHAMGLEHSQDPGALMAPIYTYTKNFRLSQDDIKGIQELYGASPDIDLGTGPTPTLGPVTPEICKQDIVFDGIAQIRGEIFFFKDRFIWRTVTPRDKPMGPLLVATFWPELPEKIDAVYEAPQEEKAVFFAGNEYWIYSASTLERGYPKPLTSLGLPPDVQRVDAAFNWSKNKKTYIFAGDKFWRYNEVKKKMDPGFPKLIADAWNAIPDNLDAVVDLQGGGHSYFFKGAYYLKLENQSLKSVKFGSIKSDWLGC

MMP-9 = molecular target: T2, MMP-9 (Homo sapiens, UniProt P14780); assay type: biochemical; conditions: 6 µM P218 substrate, approximately 0.5 to 0.8 nM MMP, 25 min. at 37°C, pH 6.5
T2 construct: made in house
T2 sequence (P14780 107-707 limits assumed): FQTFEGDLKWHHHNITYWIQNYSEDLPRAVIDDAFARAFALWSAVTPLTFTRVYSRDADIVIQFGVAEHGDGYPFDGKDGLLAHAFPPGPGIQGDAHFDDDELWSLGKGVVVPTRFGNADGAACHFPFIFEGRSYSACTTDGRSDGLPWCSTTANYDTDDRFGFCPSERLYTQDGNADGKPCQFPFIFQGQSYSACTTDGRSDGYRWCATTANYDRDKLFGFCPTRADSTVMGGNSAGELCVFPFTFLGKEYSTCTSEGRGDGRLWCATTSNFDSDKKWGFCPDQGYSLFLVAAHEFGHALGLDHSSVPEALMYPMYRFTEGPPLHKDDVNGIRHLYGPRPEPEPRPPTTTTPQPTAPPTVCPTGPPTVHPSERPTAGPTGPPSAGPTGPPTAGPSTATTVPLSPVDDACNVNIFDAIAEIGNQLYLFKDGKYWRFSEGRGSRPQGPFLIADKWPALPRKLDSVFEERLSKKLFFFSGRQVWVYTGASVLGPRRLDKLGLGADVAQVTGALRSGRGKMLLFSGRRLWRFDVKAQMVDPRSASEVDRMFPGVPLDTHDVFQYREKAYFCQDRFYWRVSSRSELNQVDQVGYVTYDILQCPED
Description: (§1) The P218 quenched fluorescence assay (Microfluorometric Profiling Assay) is a modification of that originally described by Knight, et al., FEBS Lett. 296, 263, 1992 for a related substance and a variety of matrix metalloproteinases (MMPs) in cuvettes. The assay was run with each invention compound and the three MMPs. MMP-3, MMP-9 and MMP-2, analyzed in parallel. adapted as follows for a 96-well microtiter plate and a Hamilton AT® workstation.
(§2) P218 Fluorogenic Substrate: P218 is a synthetic substrate containing a 4-acetyl-7-methoxycoumarin ( MCA) group in the N-terminal position and a 3-[2,4-dinitrophenyl]-L-2,3-diaminopropionyl (DPA) group internally. This is a modification of a peptide reported by Knight (1992) that was used as a substrate for matrix metalloptoteinases. Once the P218 peptide is cleaved (putative clip site at the Ala-Leu bond), the fluorescence of the MCA group can be detected on a fluorometer with excitation at 328 nm and emission at 393 nm. P218 is currently being produced by BACHEM Bioscience, Inc.exclusively for the Bayer Corporation. P218 has the structure: [formula]
Recombinant Human Pro-MMP-9: Human pro-gelatinase B (pro-MMP-9) derived from U937 cDNA as described by Wilhelm, et al. J. Biol. Chem. 264, 17213, 1989 was expressed as the full-length form using a baculovirus protein expression system. The pro-enzyme was purified using methods previously described by Hibbs, et al. J. Biol. Chem. 260, 2493, 1984.
Activation of Pro-MMP-9: […] 20 µg/mL in 50 mM Tris at pH 7.4, 10mM […], 150 mM NaCl, and 0.005% Brij-35 (MMP-9 activation buffer) was activated by incubation with 0 5 mM p-aminophenylmercuric acetate (APMA) for 3.5 h at 37 °C. The enzyme was dialyzed against the same buffer to remove the APMA.
(§3) Hamiltion Microlab AT Plus: The MMP-Profiling Assay was performed robotically on a Hamilton MicroLab AT Plus®. The Hamilton was programmed to: (1) serially dilute up to 11 potential inhibitors automatically from a 2.5 mM stock in 100% DMSO; (2) distribute substrate followed by inhibitor into a 96 well Cytofluor plate; and (3) add a single enzyme to the plate with mixing to start the reaction. Subsequent plates for each additional enzyme were prepared automatically by beginning the program at the substrate addition point, remixing the diluted inhibitors and beginning the reaction by addition of enzyme. In this way, all MMP assays were done using the same inhibitor dilutions.
(§4) Millipore Cytofluor II. Following incubation, the plate was read on a Cytofluor II fluoromeiric plate reader with excitation at 340 nm and emission at 395 nm with the gain set at 80.
(§5) Microfluorometric Reaction Buffer (MRB): Dilution of test compounds, enzymes, and P218 substrate for the microfluorometric assay were made in microfluorometric reaction buffer consisting of 50 mM 2-(N-morpholino)ethanesulfonic acid (MES) at pH 6.5 with 10 mM CaCl2, 150 mM NaCl. 0.005% Brij-35 and 1% DMSO.
(§6) MMP Microfluorometric Profiling Assay. The assay was done with a final substrate concentration of 6 µM P218 and approximately 0.5 to 0.8 nM MMP with variable drug concentrations. The Hamilton was programmed to serially dilute up to 11 compounds from a 2.5 mM stock (100% DMSO) to 10x the final compounds concentrations in the assay. Initially, the instrument delivered various amounts of microfluorometric reaction buffer (MRB) to a 96 tube rack of 1 mL Marsh dilution tubes. The instrument then picked up 20 µL of inhibitor (2.5 mM) from the sample rack and mixes it with a buffer in row A of the Marsh rack, resulting in a 50 µM drug concentration. The inhibitors were then serially diluted to 10, 5, 1, .2, 0.05 and 0.01 µM. […] The instrument re-mixed and loads 14.5 µL of diluted compound from rows A to G in the Marsh rack to corresponding rows in the microtiter plate. (Row H represents the "background" row and 39.5 µL of MRB was delivered in placed of drug or enzyme). […]

MMP-3 = molecular target: T3, MMP-3 (Homo sapiens, UniProt P08254); assay type: biochemical; conditions: 6 µM P218 substrate, approximately 0.5 to 0.8 nM MMP, 25 min. at 37°C, pH 6.5
T3 construct: made in house; host or cells: CHO cells
T3 sequence (P08254 100-477): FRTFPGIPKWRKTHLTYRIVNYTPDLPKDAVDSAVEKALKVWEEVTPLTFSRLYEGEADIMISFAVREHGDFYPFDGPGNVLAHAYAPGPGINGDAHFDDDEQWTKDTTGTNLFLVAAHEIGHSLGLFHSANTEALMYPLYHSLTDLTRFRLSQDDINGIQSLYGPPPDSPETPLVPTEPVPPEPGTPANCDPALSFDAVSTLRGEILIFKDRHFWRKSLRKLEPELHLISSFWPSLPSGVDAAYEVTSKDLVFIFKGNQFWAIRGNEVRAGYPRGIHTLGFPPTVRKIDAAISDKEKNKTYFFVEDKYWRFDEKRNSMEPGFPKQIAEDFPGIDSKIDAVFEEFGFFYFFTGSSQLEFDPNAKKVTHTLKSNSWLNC
Description: as §1, §2
Recombinant Human CHO Pro-MMP-3: Human CHO pro-stromelysin-257 (pro-MMP-3) was expressed and purified as described by Housley, et al., J. Biol. Chem. 268, 4481, 1993.
Activation of Pro-MMP-3: Pro-MMP-3 at 1.72 µM (100 µg/mL) in 5 mM Tris at pH 7.5, 5 mM CaCl2, 25 mM NaCl, and 0.005% Brij-35 (MMP-3 activation buffer) was activated by incubation with TPCK (N-tosyl-(L)-phenylalanine chioromethyl ketone) trypsin (1:100 w/w to pro-MMP-3) at 25 °C for 30 min. The reaction was stopped by addition of soybean trypsin inhibitor (SBTI; 5:1 w/w to trypsin concentration). This activation protocol results in the formation of 45 kDa active MMP-3, which still contains the C-tenninal portion of the enzyme.
as §3, §4, §5, §6

| Structure (SMILES) | IC50 (MMP-2) | IC50 (MMP-9) | IC50 (MMP-3) |
| --- | --- | --- | --- |
| COc1ccc(C(=O)CCCC(CC(=O)c2ccc(-c3ccc(Cl)cc3)cc2)C(=O)O)cc1 (stereo not drawn) [Compound X, 4'-chloro-α-[4-(4-methoxyphenyl)-4-oxobutyl]-γ-oxo-[1,1'-biphenyl]-4-butanoic acid] | 25.1 nM | 145 nM | 122 nM |
| CC(C)c1ccc(C(=O)CCCC(CC(=O)c2ccc(-c3ccc(Cl)cc3)cc2)C(=O)O)cc1 (stereo not drawn) [Compound XV, 4'-chloro-α-[4-[4-(1-methylethyl)phenyl]-4-oxobutyl]-γ-oxo-[1,1'-biphenyl]-4-butanoic acid] | 35.7 nM | 133 nM | 130 nM |
| COc1ccccc1C(=O)CCCC(CC(=O)c1ccc(-c2ccc(Cl)cc2)cc1)C(=O)O (stereo not drawn) [Compound XVI, 4'-chloro-α-[4-(2-methoxyphenyl)-4-oxobutyl]-γ-oxo-[1,1'-biphenyl]-4-butanoic acid] | 26.2 nM | 152 nM | 48.2 nM |
| O=C(CCCC(CC(=O)c1ccc(-c2ccc(Cl)cc2)cc1)C(=O)O)c1ccccc1 (stereo not drawn) [I, 4'-chloro-y-oxo-α-(4-oxo-4-phenylbutyl)-[1,1'-biphenyl]-4-butanoic acid] | 9.97 nM | 65.7 nM | 65 nM |
| O=C(CCC(CC(=O)c1ccc(-c2ccc(Cl)cc2)cc1)C(=O)O)c1ccccc1 (stereo not drawn) [II, 4'-chloro-y-oxo-α-(3-oxo-3-phenylpropyl)-[1,1'-biphenyl]-4-butanoic acid] | 9.6 nM | 127 nM | 96 nM |
| O=C(CCCCC(CC(=O)c1ccc(-c2ccc(Cl)cc2)cc1)C(=O)O)c1ccccc1 (stereo not drawn) [III, 4'-chloro-γ-oxo-α-(5-oxo-5-phenylpentyl)-[1,1'-biphenyl]-4-butanoic acid] | 7.52 nM | 52.4 nM | 61.1 nM |
| O=C(CCCCCC(CC(=O)c1ccc(-c2ccc(Cl)cc2)cc1)C(=O)O)c1ccccc1 (stereo not drawn) [IV, 4'-chloro-γ-oxo-α-(6-oxo-6-phenylhexyl)-[1,1'-biphenyl]-4-butanoic acid] | 34.1 nM | 175 nM | 109 nM |
| O=C(CCCC(CC(=O)c1ccc(-c2ccc(Cl)cc2)cc1)C(=O)O)c1ccc(Br)cc1 (stereo not drawn) [IX] | 28.3 nM | 131 nM | 125 nM |
| Cc1ccc(C(=O)CCCC(CC(=O)c2ccc(-c3ccc(Cl)cc3)cc2)C(=O)O)cc1 (stereo not drawn) [VIII, 4'-chloro-α-[4-(4-methylphenyl)-4-oxobutyl]-γ-oxo-[1,1'-biphenyl]-4-butanoic acid] | 19 nM | 108 nM | 69.1 nM |
| O=C(CCCC(CC(=O)c1ccc(-c2ccc(Cl)cc2)cc1)C(=O)O)c1ccc(Oc2ccccc2)cc1 (stereo not drawn) [VII] | 131 nM | 65.7 nM | 367 nM |
| Cc1cc(C)c(C(=O)CCCC(CC(=O)c2ccc(-c3ccc(Cl)cc3)cc2)C(=O)O)c(C)c1 (stereo not drawn) [VI] | 30.8 nM | 1310 nM | 39.6 nM |
| COc1cc(OC)c(C(=O)CCCC(CC(=O)c2ccc(-c3ccc(Cl)cc3)cc2)C(=O)O)c(OC)c1 (stereo not drawn) [V] | 8.13 nM | 132 nM | 71.7 nM |
| COc1ccc(C(=O)CCCC(CC(=O)c2ccc(-c3ccc(Cl)cc3)cc2)C(=O)O)c(OC)c1 (stereo not drawn) [XII, 4'-chloro-α-[4-(2,4-dimethoxyphenyl)-4-oxobutyl]-γ-oxo-[1,1'-biphenyl]-4-butanoic acid] | 25.1 nM | 225 nM | 115 nM |
| CC(C)(C)c1ccc(C(=O)CCCC(CC(=O)c2ccc(-c3ccc(Cl)cc3)cc2)C(=O)O)cc1 (stereo not drawn) [XIII] | 71.6 nM | 167 nM | 222 nM |
| CCc1ccc(C(=O)CCCC(CC(=O)c2ccc(-c3ccc(Cl)cc3)cc2)C(=O)O)cc1 (stereo not drawn) [XIV, 4'-chloro-α-[4-(4-ethylphenyl)-4-oxobutyl]-γ-oxo-[1,1'-biphenyl]-4-butanoic acid] | 29.4 nM | 126 nM | 89 nM |
| Cc1ccc(C(=O)CCCC(CC(=O)c2ccc(-c3ccc(Cl)cc3)cc2)C(=O)O)cc1C (stereo not drawn) [XI] | 48.3 nM | 105 nM | 104 nM |
